Patent US4419447A, “Fermentation process for producing demycinosyltylosin” (Eli Lilly and Company, priority 1981, dated 1983)
Values after ≈ are worked out from the molar mass of the structure shown. Where a name gives a salt, the structure may show the parent alone. Read-outs that look alike come from different tables or passages of the source.

Key:
[1] = tested on: Mycoplasma gallisepticum; assay: Treatment of induced Mycoplasma gallisepticum infection in chicks with DMT tartrate; format: in vivo; conditions: infected control 231
Method: (§1) Activity against Mycoplasma species is an especially useful aspect of the DMT compounds. Tables 10 and 11 summarize experiments using DMT and DMT tartrate for the treatment of induced Mycoplasma gallisepticum infections in chickens. The compounds were administered in the drinking water (at 1 and 2 grams per gallon for 1 to 3 days) or by injection at 15 or 30 mg/kg of body weight.

[2] = tested on: Streptococcus pneumoniae Park I; assay: Experimental infection in mice; format: in vivo
[3] = tested on: Streptococcus pyogenes C203; assay: Experimental infection in mice; format: in vivo; conditions: two doses
[4] = tested on: Streptomyces fradiae E2724.1; assay: Antibiotic sensitivity of S. fradiae E2724.1 (sensitivity discs on seeded agar plates); format: cell-based
Text: (§2) ^a Determined by using sensitivity discs padded onto seededagar

[5] = tested on: Streptomyces fradiae NRRL 12170; assay: Antibiotic sensitivity of S. fradiae NRRL 12170 (sensitivity discs on seeded agar plates); format: cell-based
Text: as §2

[6] = tested on: gram-positive microorganisms and Mycoplasma species; assay: Inhibition of growth of pathogenic bacteria (general statement); format: cell-based
Text: (§3) Table 8 summarizes the minimal inhibitory concentrations (MIC), as measured by standard agar-dilution assays, at which DMT (free base) inhibits certain bacteria.

[7] = tested on: Staphylococcus aureus 3055; assay: Experimental infection in mice; format: in vivo; conditions: two doses
[8] = Acute toxicity of DMT in mice; conditions: mouse, in vivo
Text: In these studies, 4- to 5-week-old Harlan ICR mice were used. […]

[9] = tested on: Mycoplasma gallisepticum; assay: Treatment of induced Mycoplasma gallisepticum infection in chicks with DMT base; format: in vivo; conditions: infected control 304
Method: as §1

[10] = format: physicochemical
Text: DMT base is soluble in water and in most polar organic solvents, such as acetone, methanol, ethanol, chloroform, dimethylformamide and dimethyl sulfoxide. DMT acid addition salts are more soluble in water than is DMT base.

[11] = tested on: Pasteurella hemolytica; assay: In vitro activity, standard agar-dilution assay; format: cell-based
Text: as §3

[12] = tested on: Staphylococcus aureus 209P; assay: In vitro activity, standard agar-dilution assay; format: cell-based
Text: as §3

[13] = tested on: Mycoplasma hyorhinis; assay: In vitro activity, standard agar-dilution assay; format: cell-based
Text: as §3

[14] = tested on: Mycoplasma hyopneumoniae; assay: In vitro activity, standard agar-dilution assay; format: cell-based; conditions: Mesomycoplasma hyopneumoniae
Text: as §3

[15] = tested on: Mycoplasma gallisepticum; assay: In vitro activity, standard agar-dilution assay; format: cell-based; conditions: Mycoplasmoides gallisepticum
Text: as §3

[16] = tested on: Streptococcus pyogenes C203; assay: In vitro activity, standard agar-dilution assay; format: cell-based
Text: as §3

[17] = tested on: Pasteurella multocida; assay: In vitro activity, standard agar-dilution assay; format: cell-based
Text: as §3

[18] = tested on: Streptococcus pneumoniae Park I; assay: In vitro activity, standard agar-dilution assay; format: cell-based
Text: as §3

[19] = tested on: Streptococcus sp. (Group D) 282; assay: In vitro activity, standard agar-dilution assay; format: cell-based
Text: as §3

[20] = tested on: Staphylococcus aureus 3055; assay: In vitro activity, standard agar-dilution assay; format: cell-based
Text: as §3

[21] = physchem; format: physicochemical; conditions: 66% aqueous dimethylformamide
[22] = 1.0 g/gal, 1-3 days, drinking water
[23] = 2.0 g/gal, 1-3 days, drinking water

CCC1OC(=O)CC(O)C(C)C(OC2OC(C)C(OC3CC(C)(O)C(O)C(C)O3)C(N(C)C)C2O)C(CC=O)CC(C)C(=O)C=CC(C)=CC1CO (stereo not shown) [DMT Tartrate]
Avg. Wt. ([1]; 30 mg/kg, injection): 330 g | Avg. Wt. [1, 22]: 354 g | Avg. Wt. [1, 23]: 458 g | ED50 ([2]; po): 100 mg/kg | ED50 ([2]; sc): ≤ 9.9 mg/kg | ED50 ([3]; oral, challenge 11.3 × LD50): 172 mg/kg × 2 | ED50 ([3]; subcutaneous, challenge 13 × LD50): 2.3 mg/kg × 2

O=C(Cc1cccs1)N[C@@H]1C(=O)N2C(C(=O)[O-])=C(C[n+]3ccccc3)CS[C@H]12 [Cephaloridine]
Antibiotic Sensitivity ([4]; disc conc. 30 μg): + | Antibiotic Sensitivity ([5]; disc conc. 30 μg): +

O=C(N[C@H](CO)[C@H](O)c1ccc([N+](=O)[O-])cc1)C(Cl)Cl [Chloramphenicol]
Antibiotic Sensitivity ([4]; disc conc. 30 μg): + | Antibiotic Sensitivity ([5]; disc conc. 30 μg): +

CCC1OC(=O)CC(O)C(C)C(OC2OC(C)C(OC3CC(C)(O)C(O)C(C)O3)C(N(C)C)C2O)C(CCO)CC(C)C(=O)C=CC(C)=CC1CO (stereo not shown) [dihydro-DMT, 20-dihydro-23-demycinosyltylosin]
inhibition of growth of pathogenic organisms [6]: especially active against gram-positive microorganisms and Mycoplasma species

CCC[C@@H]1C[C@@H](C(=O)N[C@@H]([C@H]2O[C@H](SC)[C@H](O)[C@@H](O)[C@H]2O)[C@@H](C)O)N(C)C1 [Lincomycin]
Antibiotic Sensitivity ([4]; disc conc. 2 μg): - | Antibiotic Sensitivity ([5]; disc conc. 2 μg): -

CN[C@H](CC(C)C)C(=O)N[C@H]1C(=O)N[C@@H](CC(N)=O)C(=O)N[C@H]2C(=O)N[C@H]3C(=O)N[C@H](C(=O)N[C@H](C(=O)O)c4cc(O)cc(O)c4-c4cc3ccc4O)[C@H](O)c3ccc(c(Cl)c3)Oc3cc2cc(c3O[C@@H]2O[C@H](CO)[C@@H](O)[C@H](O)[C@H]2O[C@H]2C[C@](C)(N)[C@H](O)[C@H](C)O2)Oc2ccc(cc2Cl)[C@H]1O [Vancomycin]
Antibiotic Sensitivity ([4]; disc conc. 30 μg): + | Antibiotic Sensitivity ([5]; disc conc. 30 μg): +

CN(C)[C@@H]1C(O)=C(C(N)=O)C(=O)[C@@]2(O)C(O)=C3C(=O)c4c(O)cccc4[C@@](C)(O)[C@H]3C[C@@H]12 [Tetracycline]
Antibiotic Sensitivity ([4]; disc conc. 30 μg): + | Antibiotic Sensitivity ([5]; disc conc. 30 μg): +

[H]/N=C(/N)N[C@H]1[C@H](O)[C@@H](O)[C@H](O[C@@H]2O[C@@H](C)[C@](O)(C=O)[C@H]2O[C@@H]2O[C@@H](CO)[C@H](O)[C@@H](O)[C@@H]2NC)[C@@H](N/C(N)=N\[H])[C@@H]1O [Streptomycin]
Antibiotic Sensitivity ([4]; disc conc. 10 μg): + | Antibiotic Sensitivity ([5]; disc conc. 10 μg): +

CCC1OC(=O)CC(O)C(C)C(OC2OC(C)C(OC3CC(C)(O)C(O)C(C)O3)C(N(C)C)C2O)C(CC=O)CC(C)C(=O)C=CC(C)=CC1CO (stereo not shown) [DMT, 23-demycinosyltylosin]
ED50 ([7]; Staphylococcus aureus, 3055, sc, subcutaneous, challenge 21 × LD50): 2.7 mg/kg | ED50 ([7]; Staphylococcus aureus, 3055, oral, challenge 26 × LD50): 64 mg/kg | LD50 ([8]; ip, females): 325 mg/kg | LD50 ([8]; ip, males): 721 mg/kg | LD50 ([8]; iv, females): 186 mg/kg | LD50 ([8]; iv, males): 100 mg/kg | LD50 ([8]; po, females): > 5000 mg/kg | LD50 ([8]; sc, females): 5450 mg/kg | Avg. Wt. ([9]; 15 mg/kg, injection): 453 g | Avg. Wt. [9, 22]: 392 g | Avg. Wt. [9, 23]: 397 g | ED50 ([2]; po, two doses, challenge 2.7 × LD50): 66 mg/kg | ED50 ([2]; sc, subcutaneous, two doses, challenge 3 × LD50): 15.7 mg/kg | solubility in most polar organic solvents [10]: soluble | solubility in water [10]: soluble | ED50 ([3]; Streptococcus pyogenes, C203, po, oral, challenge 11.3 × LD50, read-out: ED50): 218 mg/kg | ED50 ([3]; Streptococcus pyogenes, C203, sc, subcutaneous, challenge 13 × LD50, read-out: ED50): 2.2 mg/kg | MIC [11]: 12.5 µg/mL (≈ 16.8 µM) | MIC [12]: 0.25 µg/mL (≈ 0.337 µM) | MIC [13]: 0.78 µg/mL (≈ 1.05 µM) | MIC [14]: 0.195 µg/mL (≈ 0.263 µM) | MIC [15]: 0.097 µg/mL (≈ 0.131 µM) | MIC [16]: 0.25 µg/mL (≈ 0.337 µM) | MIC [17]: 3.12 µg/mL (≈ 4.21 µM) | MIC [18]: 0.13 µg/mL (≈ 0.175 µM) | MIC [19]: 0.5 µg/mL (≈ 0.674 µM) | MIC [20]: 1 µg/mL (≈ 1.35 µM) | inhibition of growth of pathogenic organisms [6]: especially active against gram-positive microorganisms and Mycoplasma species | pKa [21]: ~7.25
